Source: patent US8653049B2, “Normuramyl glycopeptide compounds” (priority 2008, dated 2014)
Entries after “also recorded” stand apart in the source; their conditions may differ. Where two headings read alike, the source gives them in different places.

Tests used:
[1] = system: bone-marrow cells; assay: Restoration of bone-marrow proliferation in azathioprine-suppressed mice; format: in vivo, CBA/J mice; set-up: key: +: restoration under the level of intact bone-marrow response; ++: restoration above the level of intact bone-marrow response; settings: two i.v. doses of 200 nmol 30 and 6 h before oral azathioprine 5 mg per mouse; bone marrow 66 h after
Method: CBA/J male mice 8 weeks old, weighing 18-20 g were administered two i.v. doses of 200 nmol test substance per mouse 30 and 6 h prior to oral application of azathioprine (Imuran Wellcome, 5 mg per mouse in a volume of 0.5 ml distilled water). Bone marrow (lavage of femurs) was sampled 66 h after the application of azathioprine. Pooled suspensions of bone-marrow cells from 3 mice were cultivated in RPMI-1640 medium with 5% of fetal bovine serum (both from Sigma) at a concentration of 2×10^5 cells/0.2 ml either without mitogen (spontaneous proliferation) or in the presence of T (phytohemagglutinin, PHA Murex, 50 μg/ml; concanavalin A, Con A Sigma, 1, 2.5 or 5 μg/ml) or B (lipopolysaccharide, LPS E. coli O55 Difco, 5 μg/ml) mitogens for 48 h at 37° C. in 5% CO2. Proliferative activity was measured by incorporation of 3H-thymidine (1 μCi/well) and expressed as stimulation index SI=mean cpm cultures with mitogen/mean cpm controls without mitogen. Statistical significance of stimulation was evaluated by the Student's t test.

[2] = system: myelin basic protein induced EAE; assay: Experimental allergic encephalomyelitis (EAE), Th1 adjuvant activity; format: in vivo, guinea pigs; settings: for Positive animals (%) (incidence of EAE): 50 μg myelin basic protein + 1 mg test compound in FIA, footpads, up to day 21, FCA positive control
[3] = system: Friend leukemia virus (FLV); assay: Friend leukemia virus infection: survival, TER-119+ cells, spleen; settings: for clonal expansion of TER-119+ erythroleukaemia cells in spleen / spleen size (weight): day 16; for clonal expansion of TER-119+ erythroleukaemia cells in spleen: FIG. 24; for spleen size (weight): FIG. 25
[4] = system: NK sensitive K562 cell line; assay: NK cell cytotoxicity of human PBMC, 51Cr-release against K562; format: cell-based; settings: range 0.1 μM-100 μM; FIG. 28
Method: Ex vivo effects of test compounds on NK cells were evaluated on human peripheral blood mononuclear cells (PBMC). The NK cell cytotoxicity of healthy donors in the presence or absence of test compounds was measured in standard 4 hrs ^51Cr-release assay against NK sensitive K562 cell line in effector (PBMC) to target (K562) ratio 16:1. Test compounds were added at a concentration of 10^−7 mol/ml.
Testing of compounds 23, 24, 32, 33, 40 and 41 for their capacity to induce cell-mediated cytotoxicity of human eripheral blood mononuclear cells (PBMCs) is shown in FIGS. 27 and 28. All donors were healthy. […] The cytotoxicity of untreated controls (30.5%) was renormalized to 100%.

[5] = rabbits, 3 rabbits per group
Method: The test was conducted in an authorised laboratory, ITEST plus s.r.o., Bilé Vchýnice 10, 533 13 Vápno u Prelouce, Czech Republic, according to guide-lines CL 2005.
Rabbits (New Zeeland albino, 4-6 kg, 3 animals per group) were used for testing.
Liposomal preparations of muramyl glycopeptide derivatives were administered s.c. (100 nmol/kg). Empty liposomes were used as negative control and the liposomal as well as the free form of muramyl dipeptide (MDP) (25 μg/kg, corresponding to 50.7 nmol/kg) served as positive control. Temperature was measured in 1, 2, 3, 4,6 and 24 hour intervals.
Empty liposomes were used as negative control; and liposomal as well as free muramyl dipeptide (MDP) (50.7 nmol/kg) served as positive control. B30-norAbu-MDP (MT01, structure on page 5) served as additional control. Temperature was measured in 1, 2, 3, 4, 6 and 24 h intervals. The preparation passed the test if the Sum of ΔTmax remained below 1.1° C. (3 rabbits per group)

[6] = system: Salmonella enteritidis; assay: Stimulation of innate immunity against Salmonella Enteritidis; settings: liposomal, 20 nmol per dose p.o. 72 and 24 h before infection (LD50); 5 mice
[7] = system: GM-CFC progenitors in bone marrow; assay: GM-CFC recovery, test compounds after sub-lethal irradiation; format: in vivo, ICR/CD-1 mice; settings: s.c. 100 nmol 24 h after 6 Gy; FIG. 36
Method: (§1) Institite of Cancer Research (ICR/CD-1) mice (female, age of 3 months, 3-4 per group) were stimulated by s.c. administration of test compounds (volume of 200 μl, 100 nmol per dose) 24 h before sublethal γ-irradiation (6 Gy, ^60Co γray source Chisostat, Chirana Ltd., Czech Republic, at a dose of 0.285 Gy/min.). Mice were sacrified at day 13 and recovery of GM-CFC in femour was assayed by counting of colonies (CFC) formed after cultivation in medium. Non-irradiated mice were used as control for normal GM-CFC count in femour. PBS and empty liposomes were used as controls for spontaneous recovery. Liposomal MDP was used as reference standard.
(§2) The following parameters of hemopoiesis were evaluated: • a) Blood leukocyte counts and bone marrow cellularity. Blood leukocytes (samples of blood drawn from an incision of the tail vein) and nucleated cell elements of the femoral bone marrow (femoral diaphyses flushed with saline) were estimated by means of Coulter Counter (Model ZN, Coulter Electronics). • b) Colony-forming cells in spleen. Endogenous spleen colony-forming units (E-CFUs) were measured on day 9 post the whole-body irradiation with 6.5 Gy (5 mice per group) according to Till and McCulloch. • c) GM-CFC progenitors in bone marrow. Femoral bone marrow cells were obtained from mice by flushing the femour with sterile IMDM medium. Harvested cells were calculated and diluted to 1.5×10^5 cells/ml and plated in triplicate in a semisolid environment created by plasma clot (Iscovess modification of Dulbecco's medium, 20% of fetal calf serum, 10% of colony-stimulating factor, 10% of citrate plasma, and CaCl2 1.5 mg/ml). The cultures were incubated for 7 days at 37° C. in 5% CO2. Colonies of at least 50 cells were scored at 40× magnification.
The method is exactly as described above except that the test compounds (volume of 200 μl, 100 nmol per dose) were administered 24 h after sublethal γ-irradiation (6 Gy).

[8] = system: GM-CFC progenitors in bone marrow; assay: GM-CFC recovery, test compounds before sub-lethal irradiation; format: in vivo, ICR/CD-1 mice; settings: s.c. 100 nmol 24 h before 6 Gy, day 13; FIGS. 33-35
Method: as §1, §2
Statistical significance between individual experimental groups of mice in hemopoietic parameters was calculated by one-way analysis of variance. The Newman-Keuls test for comparison of all pairs of columns and the Dunnett test for comparison of all columns with the control column were used in the analysis.

[9] = system: r-hsp90 (Candida albicans hsp90) specific IgG antibodies; assay: Proteoliposome vaccine against C. albicans hsp90: antibody (humoral) response, ELISA; format: in vivo, BALB/c mice; settings: Experiment 12.2; liposomal compound (5%) + Ni-HSP90, boost day 14; FIG. 13
Method: Proteoliposomes were prepared by coupling recombinant hsp90 antigen (r-hsp90, 6×HISTag) via a metal chelating lipid to liposomes containing muramyl glycopeptide derivatives as adjuvant component. BALB/c […] mice 4 to 5 weeks old (female 20±2 g, 5 animal per group) were immunized by the intradermal route either with 20 μg of free or liposomal r-hsp90 (volume of 60 μl) either with or without L18-norAbu-MDP and boosted 21 days later by the same composition of experimental vaccine. FCA was used as positive control r-hsp90. Liposomal vaccine composition 20 μg of rHSP90 antigen, 5% metallochelating lipid, 5% particular MT analogue, 90% phospolipids.
Blood samples were collected from the tail vein into heparinised capillary PCV tubes. After centrifugation, the upper part of the tube, containing […] blood serum, was cut off, thrown into […] diluting solution and thoroughly shaken. Thus, a basic dilution of 1:33 was obtained. The pre-diluted sera were kept at −20° C. Blood samples were collected before the first immunization, 2 weeks thereafter and subsequently at weekly intervals up to the 4th week after the second immunisation. Specific IgG antibodies in blood serum samples were determined by the standard indirect ELISA procedure. The data obtained were processed statistically using the non-parametric Mann-Whitney U-test.
Proteoliposomes with muramyl glycopeptide derivatives were prepared as described above, but the boost was carried out already after 14 days. The liposomal vaccine composition was as for Experiment Set 1: 20 μg of rHSP90 antigen, 5% metallochelating lipid, 5% particular MT analogue, 90% phospolipids.
Controls: Aluminum hydroxide (AlOH) and Freund complete adjuvans (FCA) were used as positive controls. PBS with empty liposomes was used as negative control (control). Humoral response was tested at day 14 after vaccination (post priming) and at day 20 after vaccination (post booster). Antibody titres were wer assayed by ELISA.

[10] = system: NK-sensitive YAC1 target cells; assay: NK cell-mediated cytotoxicity of spleen mononuclear cells, 51Cr-release against YAC1; settings: FLV-inoculated mice, day 16, 18 h incubation with YAC1; FIG. 26
[11] = liposomal preparations s.c. 100 nmol/kg, passes if below 1.1° C.

CC(=O)N[C@H]1[C@H](O[C@H]2[C@H](O[C@H](C)C(=O)N[C@@H](C)C(=O)N[C@H](CCC(=O)O)C(N)=O)[C@@H](NC(C)=O)C(O)O[C@@H]2CO)O[C@H](CO)[C@@H](O)[C@@H]1O (stereo partly drawn) [GMDP, glucosaminylmuramyl dipeptide]
Restoration of BM Proliferation in Immunosuppressive Therapy [1]: ++
Positive animals (%) (incidence of EAE) [2]: 65%

CCC(NC(=O)COC1C(O)C(CO)OC(O)C1NC(C)=O)C(=O)NC(CCC(=O)O)C(N)=O (stereo not drawn) [norAbu-MDP]
Restoration of BM Proliferation in Immunosuppressive Therapy [1]: +

CCCCCCCCCCCCCCC(CCCCCCCCCCCCCC)C(=O)NCCCC[C@H](NC(=O)CC[C@@H](NC(=O)[C@H](CC)NC(=O)CO[C@H]1[C@H](O[C@@H]2O[C@H](CO)[C@@H](O)[C@H](O)[C@H]2NC(C)=O)[C@@H](CO)OC(O)[C@@H]1NC(C)=O)C(N)=O)C(=O)O (stereo partly drawn) [Compound 41, N-[2-O-(2-Acetamido-2-deoxy-β-D-glucopyranosyl-(1→4)-2-acetamido-2,3-dideoxy-D-glucopyranose-3-yl)-glycoloyl]-L-α-aminobutanoyl-D-isoglutaminyl-L-lysine(2-tetradecylhexadecanoyl)]
survival, late phase (days 55 and 59), long-term ([3]; 10 μmol i.p., non-liposomal, control 0%, FIG. 23): ensure long-term survival
survival, early phase (day 43) ([3]; 10 μmol i.p., non-liposomal, saline control 82%, FIG. 23): survival rate worse than control
clonal expansion of TER-119+ erythroleukaemia cells in spleen [3]: pronounced opposite effect
spleen size (weight) [3]: increased spleen size
dose response of NK cell activity [4]: negative dose response
+ΔTmax (Sum of ΔTmax) [5, 11]: 0.8 °C
Day 6 Intest.: clear/infected/dead [6]: 2/3/0
Day 6 Liver: clear/infected/dead [6]: 2/3/0
Day 6 Lungs: clear/infected/dead [6]: 4/1/0
Day 6 Spleen: clear/infected/dead [6]: 2/3/0
Day 12 Intest.: clear/infected/dead [6]: 1/2/2
Day 12 Liver: clear/infected/dead [6]: 2/1/2
Day 12 Lungs: clear/infected/dead [6]: 2/1/2
Day 12 Spleen: clear/infected/dead [6]: 2/1/2

CC(=O)N[C@@H]1[C@@H](O[C@H](C)C(=O)N[C@@H](C)C(=O)N[C@H](CCC(=O)O)C(N)=O)[C@H](O)[C@@H](CO)O[C@H]1O [MDP, muramyldipeptide]
Restoration of BM Proliferation in Immunosuppressive Therapy [1]: +
Positive animals (%) (incidence of EAE) [2]: 58%
+ΔTmax (Sum of ΔTmax) ([5]; MDP positive control 25 μg/kg (50.7 nmol/kg), liposomal or free): 2.9 °C

CCCCCCCCCCCCCCCCCC(=O)NCCCC[C@H](NC(=O)CC[C@@H](NC(=O)[C@H](CC)NC(=O)CO[C@H]1[C@H](O[C@@H]2O[C@H](CO)[C@@H](O)[C@H](O)[C@H]2NC(C)=O)[C@@H](CO)OC(O)[C@@H]1NC(C)=O)C(N)=O)C(=O)O (stereo partly drawn) [Compound 40, N-[2-O-(2-Acetamido-2-deoxy-βD-glucopyranosyl-(1→4)-2-acetamido-2,3-dideoxy-D-glucopyranose-3-yl)-glycoloyl]-L-α-aminobutanoyl-D-isoglutaminyl-L-lysine(stearoyl)]
clonal expansion of TER-119+ erythroleukaemia cells in spleen [3]: dose-dependent, positive effect
spleen size (weight) [3]: spleen size slightly lower than the control
GM-CFC progenitor cells in bone marrow [7]: strongest performers; also recorded: strongest effect; also recorded: one of the best effects
dose response of NK cell activity [4]: negative dose response
GM-CFC progenitor cells in bone marrow [8]: acceptable performance
antibody response to r-hsp90 proteoliposomes [9]: strong and comparable to AlOH
+ΔTmax (Sum of ΔTmax) [5, 11]: 0.6 °C
Day 6 Intest.: clear/infected/dead [6]: 4/1/0
Day 6 Liver: clear/infected/dead [6]: 4/1/0
Day 6 Lungs: clear/infected/dead [6]: 4/1/0
Day 6 Spleen: clear/infected/dead [6]: 5/0/0
Day 12 Intest.: clear/infected/dead [6]: 0/2/3
Day 12 Liver: clear/infected/dead [6]: 1/1/3
Day 12 Lungs: clear/infected/dead [6]: 1/1/3
Day 12 Spleen: clear/infected/dead [6]: 1/1/3
NK cell activity (cell-mediated cytotoxicity of SMCs) [10]: stimulate NK cell functional activity

CC[C@H](NC(=O)CO[C@H]1[C@H](O[C@@H]2O[C@H](CO)[C@@H](O)[C@H](O)[C@H]2NC(C)=O)[C@@H](CO)OC(O)[C@@H]1NC(C)=O)C(=O)N[C@H](CCC(=O)O)C(N)=O (stereo partly drawn) [norAbu-GMDP]
Restoration of BM Proliferation in Immunosuppressive Therapy [1]: ++
Positive animals (%) (incidence of EAE) [2]: 90%
Th1 stimulation (EAE) ([2]; guinea pigs sensitized with bovine MBP in IFA + compound, FIG. 31): superior to MDP and GMDP as Th1 adjuvants
